In patent US9833497B2, “Human originated EGF domain proteins and use of the same” (CHENGDU SOURCEBIO LIMITED-LIABILITY COMPANY, priority 2013, dated 2017):

Key:
Assay type in all cases: cell-based
Klebsiella pneumonia = assay: MIC against Gram-negative bacteria: Klebsiella pneumonia; details: 5×10^5 CFU/mL; for MIC K. pneumonia / MIC against K. pneumonia: 96-well plate, 37° C., 10 h; for MIC (μg/mL) K. pneumonia: 10 h cultivation at 37° C.
In short: (§1)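 Bacteria grown in LB at 37° C to McFarland 0.5, resuspended and seeded at 5×10^5 CFU/mL in 96-well plates. Purified human EGF-domain proteins two-fold serially diluted, triplicate wells; cultured at 37° C, shaking 175 rpm. MIC = lowest protein concentration with no growth.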

E. coli BL21 = assay: MIC against Gram-negative bacteria: E. coli BL21; details: 5×10^5 CFU/mL; for MIC E. coli BL21 / MIC against E. coli BL21: 96-well plate, 37° C., 10 h; for MIC (μg/mL) E. coli BL21: 10 h cultivation at 37° C.
In short: as §1

Moraxella catarrhalis = assay: MIC against Gram-negative bacteria: Moraxella catarrhalis; details: 5×10^5 CFU/mL; for MIC M. catarrhalis / MIC against M. catarrhalis: 96-well plate, 37° C., 10 h; for MIC (μg/mL) M. catarrhalis: 10 h cultivation at 37° C.
In short: as §1

Aeromonas hydrophila = assay: MIC against Gram-negative bacteria: Aeromonas hydrophila; details: 5×10^5 CFU/mL; for MIC A. hydrophila / MIC against A. hydrophila: 96-well plate, 37° C., 10 h; for MIC (μg/mL) A. hydrophila: 10 h cultivation at 37° C.
In short: as §1

Enterobacter cloacae = assay: MIC against Gram-negative bacteria: Enterobacter cloacae; details: 5×10^5 CFU/mL; for MIC E. cloacae / MIC against E. cloacae: 96-well plate, 37° C., 10 h; for MIC (μg/mL) E. cloacae: 10 h cultivation at 37° C.
In short: as §1

Proteus vulgaris = assay: MIC against Gram-negative bacteria: Proteus vulgaris; details: 5×10^5 CFU/mL; for MIC P. vulgaris / MIC against P. vulgaris: 96-well plate, 37° C., 10 h; for MIC (μg/mL) P. vulgaris: 10 h cultivation at 37° C.
In short: as §1

E. coli DH5α = assay: Antibacterial activity: MIC and growth curve against E. coli DH5α in 96-well plate; details: minimal inhibitory concentration against E. coli DH5α; 96-well plate, 5×10^5 CFU/mL, 37° C., judged after 8 h
In short: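 MIC taken as lowest protein level with no bacterial growth, tracked by A600 every 30 min during 37 °C, 175 rpm culture. Two-fold protein series 50-12.5 μg/mL final, triplicate wells, against 5×10^5 CFU/mL of LB-washed mid-log cells.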

Proteus mirabilis = assay: MIC against Gram-negative bacteria: Proteus mirabilis; details: 5×10^5 CFU/mL; for MIC P. mirabilis / MIC against P. mirabilis: 96-well plate, 37° C., 10 h; for MIC (μg/mL) P. mirabilis: 10 h cultivation at 37° C.
In short: as §1

Pseudomonas aeruginosa = assay: MIC against Gram-negative bacteria: Pseudomonas aeruginosa; details: 5×10^5 CFU/mL; for MIC P. aeruginosa / MIC against P. aeruginosa: 96-well plate, 37° C., 10 h; for MIC (μg/mL) P. aeruginosa: 10 h cultivation at 37° C.
In short: as §1

Serratia marcescens = assay: MIC against Gram-negative bacteria: Serratia marcescens; details: 5×10^5 CFU/mL; for MIC S. marcescens / MIC against S. marcescens: 96-well plate, 37° C., 10 h; for MIC (μg/mL) S. marcescens: 10 h cultivation at 37° C.
In short: as §1

Citrobacter diversus = assay: MIC against Gram-negative bacteria: Citrobacter diversus; details: 5×10^5 CFU/mL; for MIC C. diversus / MIC against C. diversus: 96-well plate, 37° C., 10 h; for MIC (μg/mL) C. diversus: 10 h cultivation at 37° C.
In short: as §1

## PRT643 (RVVICHLPCMNGGQCSSRDKCQCPPNFTGKLCQ; listed as Homo sapiens)
Klebsiella pneumonia
  MIC K. pneumonia: 25 µg/mL
E. coli BL21
  MIC E. coli BL21: 25 µg/mL
Moraxella catarrhalis
  MIC M. catarrhalis: 25 µg/mL
Aeromonas hydrophila
  MIC A. hydrophila: 25 µg/mL
Enterobacter cloacae
  MIC E. cloacae: 12.5 µg/mL
Proteus vulgaris
  MIC P. vulgaris: 25 µg/mL
E. coli DH5α
  MIC: 12.5 µg/mL
Proteus mirabilis
  MIC P. mirabilis: 12.5 µg/mL
Pseudomonas aeruginosa
  MIC P. aeruginosa: 50 µg/mL
Serratia marcescens
  MIC S. marcescens: 50 µg/mL
Citrobacter diversus
  MIC C. diversus: 50 µg/mL

## PRT447 (DVDECAQALHDRRPSQDCHNLSGSYQCTCPDGYRKIGPE; listed as Homo sapiens)
Klebsiella pneumonia
  MIC against K. pneumonia: 25 µg/mL
E. coli BL21
  MIC against E. coli BL21: 25 µg/mL
Moraxella catarrhalis
  MIC against M. catarrhalis: 25 µg/mL
Aeromonas hydrophila
  MIC against A. hydrophila: 25 µg/mL
Enterobacter cloacae
  MIC against E. cloacae: 50 µg/mL
Proteus vulgaris
  MIC against P. vulgaris: 12.5 µg/mL
E. coli DH5α
  MIC: 50 µg/mL
Proteus mirabilis
  MIC against P. mirabilis: 50 µg/mL
Pseudomonas aeruginosa
  MIC against P. aeruginosa: 12.5 µg/mL
Serratia marcescens
  MIC against S. marcescens: 50 µg/mL
Citrobacter diversus
  MIC against C. diversus: 12.5 µg/mL

## PRT627 (CTCNPAGSLDTCDPRSGRCPCKENVEGNLCDRCRPGTFNLQPHNPAGCSS; listed as Homo sapiens)
Klebsiella pneumonia
  MIC K. pneumonia: 12.5 µg/mL
E. coli BL21
  MIC E. coli BL21: 25 µg/mL
Moraxella catarrhalis
  MIC M. catarrhalis: 12.5 µg/mL
Aeromonas hydrophila
  MIC A. hydrophila: 12.5 µg/mL
Enterobacter cloacae
  MIC E. cloacae: 12.5 µg/mL
Proteus vulgaris
  MIC P. vulgaris: 12.5 µg/mL
E. coli DH5α
  MIC: 12.5 µg/mL
Proteus mirabilis
  MIC P. mirabilis: 50 µg/mL
Pseudomonas aeruginosa
  MIC P. aeruginosa: 12.5 µg/mL
Serratia marcescens
  MIC S. marcescens: 50 µg/mL
Citrobacter diversus
  MIC C. diversus: 12.5 µg/mL

## PRT537 (CDCNGNSNECLDGSGYCVHCQRNTTGEHCEKCLDGYIGDSIRGAPQFCQP; listed as Homo sapiens)
Klebsiella pneumonia
  MIC against K. pneumonia: 25 µg/mL
E. coli BL21
  MIC against E. coli BL21: 25 µg/mL
Moraxella catarrhalis
  MIC against M. catarrhalis: 25 µg/mL
Aeromonas hydrophila
  MIC against A. hydrophila: 25 µg/mL
Enterobacter cloacae
  MIC against E. cloacae: 50 µg/mL
Proteus vulgaris
  MIC against P. vulgaris: 25 µg/mL
E. coli DH5α
  MIC: 50 µg/mL
Proteus mirabilis
  MIC against P. mirabilis: 12.5 µg/mL
Pseudomonas aeruginosa
  MIC against P. aeruginosa: 12.5 µg/mL
Serratia marcescens
  MIC against S. marcescens: 12.5 µg/mL
Citrobacter diversus
  MIC against C. diversus: 12.5 µg/mL

## PRT1262 (DVDECSMSNGSCDQGCVNTKGSYECVCPPGRRLHWNGKDCV; listed as Homo sapiens)
Klebsiella pneumonia; Klebsiella pneumonia
  MIC against K. pneumonia: 25 µg/mL
E. coli BL21; E. coli BL21
  MIC against E. coli BL21: 25 µg/mL
Moraxella catarrhalis; Moraxella catarrhalis
  MIC against M. catarrhalis: 50 µg/mL
Aeromonas hydrophila; Aeromonas hydrophila
  MIC against A. hydrophila: 50 µg/mL
Enterobacter cloacae; Enterobacter cloacae
  MIC against E. cloacae: 12.5 µg/mL
Proteus vulgaris; Proteus vulgaris
  MIC against P. vulgaris: 50 µg/mL
E. coli DH5α
  MIC: 12.5 µg/mL
Proteus mirabilis; Proteus mirabilis
  MIC against P. mirabilis: 12.5 µg/mL
Pseudomonas aeruginosa; Pseudomonas aeruginosa
  MIC against P. aeruginosa: 12.5 µg/mL
Serratia marcescens; Serratia marcescens
  MIC against S. marcescens: 25 µg/mL
Citrobacter diversus; Citrobacter diversus
  MIC against C. diversus: 12.5 µg/mL

## PRT774 (LTLRCDYYGCNQTADDCLNGLACDCKSDLQRPNPQSPFCV; listed as Homo sapiens)
Klebsiella pneumonia
  MIC (μg/mL) K. pneumonia: 25 µg/mL
E. coli BL21; E. coli BL21
  MIC (μg/mL) E. coli BL21: 12.5 µg/mL
Moraxella catarrhalis
  MIC (μg/mL) M. catarrhalis: 12.5 µg/mL
Aeromonas hydrophila
  MIC (μg/mL) A. hydrophila: 25 µg/mL
Enterobacter cloacae
  MIC (μg/mL) E. cloacae: 12.5 µg/mL
Proteus vulgaris
  MIC (μg/mL) P. vulgaris: 12.5 µg/mL
E. coli DH5α
  MIC: 50 µg/mL
Proteus mirabilis
  MIC (μg/mL) P. mirabilis: 12.5 µg/mL
Pseudomonas aeruginosa
  MIC (μg/mL) P. aeruginosa: 12.5 µg/mL
Serratia marcescens
  MIC (μg/mL) S. marcescens: 50 µg/mL
Citrobacter diversus
  MIC (μg/mL) C. diversus: 12.5 µg/mL

## PRT738 (FHTRCEEDNGGCSHLCLLSPSEPFYTCACPTGVQLQDNGRTCK; listed as Homo sapiens)
Klebsiella pneumonia
  MIC K. pneumonia: 50 µg/mL
E. coli BL21
  MIC E. coli BL21: 12.5 µg/mL
Moraxella catarrhalis
  MIC M. catarrhalis: 25 µg/mL
Aeromonas hydrophila
  MIC A. hydrophila: 50 µg/mL
Enterobacter cloacae
  MIC E. cloacae: 12.5 µg/mL
Proteus vulgaris
  MIC P. vulgaris: 25 µg/mL
E. coli DH5α
  MIC: 50 µg/mL
Proteus mirabilis
  MIC P. mirabilis: 50 µg/mL
Pseudomonas aeruginosa
  MIC P. aeruginosa: 25 µg/mL
Serratia marcescens
  MIC S. marcescens: 25 µg/mL
Citrobacter diversus
  MIC C. diversus: 12.5 µg/mL

## PRT604 (CPCNRFAELCDPETGSCFNCGGFTTGRNCERCIDGYYGNPSSGQPCRP; listed as Homo sapiens)
Klebsiella pneumonia
  MIC K. pneumonia: 50 µg/mL
E. coli BL21
  MIC E. coli BL21: 12.5 µg/mL
Moraxella catarrhalis
  MIC M. catarrhalis: 12.5 µg/mL
Aeromonas hydrophila
  MIC A. hydrophila: 12.5 µg/mL
Enterobacter cloacae
  MIC E. cloacae: 25 µg/mL
Proteus vulgaris
  MIC P. vulgaris: 12.5 µg/mL
E. coli DH5α
  MIC: 50 µg/mL
Proteus mirabilis
  MIC P. mirabilis: 25 µg/mL
Pseudomonas aeruginosa
  MIC P. aeruginosa: 25 µg/mL
Serratia marcescens
  MIC S. marcescens: 25 µg/mL
Citrobacter diversus
  MIC C. diversus: 25 µg/mL

## PRT172 (CADGPCFNGGRCSDSPDGGYSCRCPVGYSGFNC; listed as Homo sapiens)
Klebsiella pneumonia
  MIC (μg/mL) K. pneumonia: 25 µg/mL
E. coli BL21; E. coli BL21
  MIC (μg/mL) E. coli BL21: 25 µg/mL
Moraxella catarrhalis
  MIC (μg/mL) M. catarrhalis: 12.5 µg/mL
Aeromonas hydrophila
  MIC (μg/mL) A. hydrophila: 12.5 µg/mL
Enterobacter cloacae
  MIC (μg/mL) E. cloacae: 12.5 µg/mL
Proteus vulgaris
  MIC (μg/mL) P. vulgaris: 12.5 µg/mL
E. coli DH5α
  MIC: 12.5 µg/mL
Proteus mirabilis
  MIC (μg/mL) P. mirabilis: 12.5 µg/mL
Pseudomonas aeruginosa
  MIC (μg/mL) P. aeruginosa: 50 µg/mL
Serratia marcescens
  MIC (μg/mL) S. marcescens: 12.5 µg/mL
Citrobacter diversus
  MIC (μg/mL) C. diversus: 12.5 µg/mL

## PRT216 (DIDECTAGTHNCRADQVCINLRGSFACQCPPGYQKRGEQCV; listed as Homo sapiens)
Klebsiella pneumonia
  MIC (μg/mL) K. pneumonia: 50 µg/mL
E. coli BL21; E. coli BL21
  MIC (μg/mL) E. coli BL21: 12.5 µg/mL
Moraxella catarrhalis
  MIC (μg/mL) M. catarrhalis: 50 µg/mL
Aeromonas hydrophila
  MIC (μg/mL) A. hydrophila: 50 µg/mL
Enterobacter cloacae
  MIC (μg/mL) E. cloacae: 12.5 µg/mL
Proteus vulgaris
  MIC (μg/mL) P. vulgaris: 12.5 µg/mL
E. coli DH5α
  MIC: 12.5 µg/mL
Proteus mirabilis
  MIC (μg/mL) P. mirabilis: 25 µg/mL
Pseudomonas aeruginosa
  MIC (μg/mL) P. aeruginosa: 12.5 µg/mL
Serratia marcescens
  MIC (μg/mL) S. marcescens: 25 µg/mL
Citrobacter diversus
  MIC (μg/mL) C. diversus: 12.5 µg/mL

## PRT1331 (EIDPCADGLNGGCHEHATCKMTGPGKHKCECKSHYVGDGLNCE; listed as Homo sapiens)
Klebsiella pneumonia; Klebsiella pneumonia
  MIC against K. pneumonia: 12.5 µg/mL
E. coli BL21; E. coli BL21
  MIC against E. coli BL21: 50 µg/mL
Moraxella catarrhalis; Moraxella catarrhalis
  MIC against M. catarrhalis: 50 µg/mL
Aeromonas hydrophila; Aeromonas hydrophila
  MIC against A. hydrophila: 12.5 µg/mL
Enterobacter cloacae; Enterobacter cloacae
  MIC against E. cloacae: 50 µg/mL
Proteus vulgaris; Proteus vulgaris
  MIC against P. vulgaris: 12.5 µg/mL
E. coli DH5α
  MIC: 25 µg/mL
Proteus mirabilis; Proteus mirabilis
  MIC against P. mirabilis: 25 µg/mL
Pseudomonas aeruginosa; Pseudomonas aeruginosa
  MIC against P. aeruginosa: 25 µg/mL
Serratia marcescens; Serratia marcescens
  MIC against S. marcescens: 25 µg/mL
Citrobacter diversus; Citrobacter diversus
  MIC against C. diversus: 25 µg/mL
